Data from ChEMBL document CHEMBL2331501, “3H-1,2,4-Dithiazol-3-one compounds as novel potential affordable antitubercular agents” (Bioorg Med Chem Lett, 2013).
Values after ≈ are worked out from the molar mass of the structure shown.

How the values were obtained:
[1] = test system: Mycobacterium tuberculosis; assay: Antitubercular activity against Mycobacterium tuberculosis H37Rv ATCC 27294 after 11 days by serial dilution method; type: functional; conditions: H37Rv ATCC 27294, 264 h
[2] = Cytotoxicity against human L02 cells assessed as inhibitory ratio at 100 uM after 48 hrs by MTT assay; type: cell-based; conditions: read-out: INH

Row | Structure (SMILES) | MIC90 [1] | MIC99 [1] | cytotoxicity at 48 h, 100 µM [2]
1 | O=c1nc(-c2cc(F)c(Cl)nc2Cl)ss1 | 32 µg/mL (≈ 113 µM) | 4 µg/mL (≈ 14.1 µM) | 24.3%
2 | O=c1nc(-c2cnccn2)ss1 | 32 µg/mL (≈ 162 µM) | 16 µg/mL (≈ 81.1 µM) | 56.7%
3 | O=c1nc(-c2cccnc2Cl)ss1 | 32 µg/mL (≈ 139 µM) | 16 µg/mL (≈ 69.4 µM) | 34.4%
4 | O=c1nc(-c2ccc([N+](=O)[O-])cc2Cl)ss1 | 32 µg/mL (≈ 116 µM) | 16 µg/mL (≈ 58.2 µM) | 28.6%
5 | O=c1nc(-c2ccccc2[N+](=O)[O-])ss1 | 16 µg/mL (≈ 66.6 µM) | 32 µg/mL (≈ 133 µM) | 33%
6 | Cc1ccc(-c2nc(=O)ss2)s1 | 16 µg/mL (≈ 74.3 µM) | 32 µg/mL (≈ 149 µM) | 36.3%
7 | Nc1ccc(-c2nc(=O)ss2)cc1 | 16 µg/mL (≈ 76.1 µM) | 32 µg/mL (≈ 152 µM) | 46.3%
8 | O=c1nc(-c2ccc3ccccc3c2)ss1 | 32 µg/mL (≈ 130 µM) | 16 µg/mL (≈ 65.2 µM) | 47.2%
9 | COc1ccc(OC)c(-c2nc(=O)ss2)c1 | 32 µg/mL (≈ 125 µM) | 32 µg/mL (≈ 125 µM) | 23.7%
10 | COc1cccc(-c2nc(=O)ss2)c1 | 16 µg/mL (≈ 71 µM) | 32 µg/mL (≈ 142 µM) | 38.6%
11 | Cc1ccccc1-c1nc(=O)ss1 | 16 µg/mL (≈ 76.4 µM) | 32 µg/mL (≈ 153 µM) | 18.6%
12 | O=c1nc(-c2ccc(F)cc2)ss1 | 32 µg/mL (≈ 150 µM) | 16 µg/mL (≈ 75 µM) | 33.7%
13 | O=c1nc(-c2ccc(Cl)cc2)ss1 | 64 µg/mL (≈ 279 µM) | 32 µg/mL (≈ 139 µM) | 46%
14 | Cc1sc(-c2nsc(=O)o2)cc1[N+](=O)[O-] | 2 µg/mL (≈ 8.19 µM) | 1 µg/mL (≈ 4.09 µM) | 53.8%
15 | O=c1oc(-c2cc(F)c(Cl)nc2Cl)ns1 | 16 µg/mL (≈ 59.9 µM) | 8 µg/mL (≈ 30 µM) | 15.1%
16 | O=c1oc(-c2cccnc2Cl)ns1 | 8 µg/mL (≈ 37.3 µM) | 8 µg/mL (≈ 37.3 µM) | 31.4%
17 | O=c1oc(-c2ccc([N+](=O)[O-])cc2Cl)ns1 | 16 µg/mL (≈ 61.9 µM) | 16 µg/mL (≈ 61.9 µM) | 54.6%
18 | O=c1oc(-c2ccccc2[N+](=O)[O-])ns1 | 8 µg/mL (≈ 35.7 µM) | 16 µg/mL (≈ 71.4 µM) | 32.4%
19 | Cc1ccc(-c2nsc(=O)o2)s1 | 8 µg/mL (≈ 40.1 µM) | 16 µg/mL (≈ 80.3 µM) | 25.1%
20 | Nc1ccc(-c2nsc(=O)o2)cc1 | 16 µg/mL (≈ 82.4 µM) | 16 µg/mL (≈ 82.4 µM) | 39.5%
21 | O=c1oc(-c2ccc3ccccc3c2)ns1 | 16 µg/mL (≈ 69.8 µM) | 16 µg/mL (≈ 69.8 µM) | 26.2%
22 | COc1ccc(OC)c(-c2nsc(=O)o2)c1 | 16 µg/mL (≈ 66.9 µM) | 16 µg/mL (≈ 66.9 µM) | 25.3%
23 | COc1cccc(-c2nsc(=O)o2)c1 | 8 µg/mL (≈ 38.2 µM) | 16 µg/mL (≈ 76.5 µM) | 15%
24 | Cc1ccccc1-c1nsc(=O)o1 | 8 µg/mL (≈ 41.4 µM) | 16 µg/mL (≈ 82.8 µM) | 18.1%
25 | O=c1oc(-c2ccccc2Cl)ns1 | 8 µg/mL (≈ 37.4 µM) | 8 µg/mL (≈ 37.4 µM) | 20.6%
26 | O=c1oc(-c2ccc(F)cc2)ns1 | 16 µg/mL (≈ 81.1 µM) | 16 µg/mL (≈ 81.1 µM) | 21.7%
27 | O=c1oc(-c2ccc(Cl)cc2)ns1 | 32 µg/mL (≈ 150 µM) | 4 µg/mL (≈ 18.7 µM) | 39.6%
28 | O=c1nc(-c2ccccc2Cl)ss1 | 8 µg/mL (≈ 34.8 µM) | 16 µg/mL (≈ 69.7 µM) | 40.1%
29 | O=c1oc(-c2cnccn2)ns1 | 16 µg/mL (≈ 88.3 µM) | 4 µg/mL (≈ 22.1 µM) | 31.4%
